The text below walks through data of patent US20130078194A1, “COMPOSITIONS FOR DENTAL TREATMENT COMPRISING LIPOTEICHOIC ACIDS OR PARTS THEREOF LIKE MONO- OR POLYGLYCERPHOSPHATES” (LUNAMED AG, priority 2010, published 2013).

SMILES strings stand for the structures. Values joined by “and” are separate entries in the source; they are usually repeats but may differ in a detail not shown here. Equal entries are not always repeated.

This assay concerns Streptococcus mutans. The assay is described as follows: Tooth experiment: biofilm formation of Streptococcus mutans on pre-treated human incisors (Safranin staining, phase analysis of pictures). The class given is cell-based. As to conditions: for % Area covered with bacteria: single pictures (4 per tooth), 3 days S. mutans; for % Mean area covered: mean of 4 pictures. As for the experimental part:
To investigate the influence of glycerol phosphate, polyglycerol phosphate and LTA-T on the biofilm formation of Streptococcus mutans on human teeth, incisors (1/condition) were preincubated under rotating conditions (50 rpm) at 37° C. for 1 h with: • 1. 5000 μg/ml glycerol phosphate in PBS • 2. 20000 μg/ml glycerol phosphate in PBS • 3. 277 μg/ml polyglycerol phosphate (PGP1) in PBS • 4. 1106 μg/ml polyglycerol phosphate (PGP1) in PBS • 5. 25 μg/ml LTA-T in PBS • 6. PBS as control
These teeth were then washed with ultrapure H2O by repetitive dipping (3 liquid air interfaces) and incubated in a saturated suspension of Streptococcus mutans (in BHI broth, 3% sucrose) under rotating conditions (50 rpm) at 37° C. for 3 days. Each day, bacteria were fed with 1 ml of a solution of 30% sucrose in PBS to enhance biofilm formation. After incubation, the teeth were washed with ultrapure H2O, air dried for 2 h and stained with Safranin (0.5% v/v) solution. The stained teeth were air dried and photographed (see above).
Of each tooth 4 representative pictures were taken. The pictures were analyzed with SigmaPlot Software, Version 11.0 using phase analysis: The color (phase) of the bacterial biofilm was defined and % area of the chosen color on each picture was calculated.
The difference between groups was compared using the unpaired t-test.

Consider `O=P(O)(OC[C@H](O)COP(=O)(O)OC[C@H](O)COP(=O)(O)OC[C@H](O)CO)OC[C@@H](O)COP(=O)(O)OC[C@@H](O)CO` [PGP1], for which, where the note is “pre-treatment 277 μg/ml”, the “adhesion of bacteria compared to control tooth” value is “significantly reduced” and the “% Mean area covered” value is reported as 0.65%. In addition, the “% Area covered with bacteria” value (pre-treatment 277 μg/ml in PBS 1 h) is 1.93% and 0.19% and 0.08% and 0.40%. Also, for the setting “pre-treatment 1106 μg/ml”, the “adhesion of bacteria to the tooth surface” value is given as “bacteria were still able to adhere to the tooth surface”, the “decrease of biofilm formation compared to control tooth” value is given as “still significant” and the “% Mean area covered” value is recorded as 15.16%.

Consider `O=P(O)(O)OC(CO)CO` [glycerol phosphate, beta glycerol phosphate], for which the “adhesion of bacteria compared to control tooth” value reads like this: (pre-treatment 5000 μg/ml) “significantly reduced”; (pre-treatment 20000 μg/ml) “significantly reduced”. Besides, the “% Area covered with bacteria” value is 0.00% and 0.02% (pre-treatment 5000 μg/ml in PBS 1 h); 0.00% (pre-treatment 20000 μg/ml in PBS 1 h). Besides, the “% Mean area covered” value reads like this: (pre-treatment 5000 μg/ml) 0.00%; (pre-treatment 20000 μg/ml) 0.00%.
